# Assay results as given in ChEMBL document CHEMBL3885881, “DrugMatrix”.
# Organism: Rattus norvegicus
# Assay: DrugMatrix - Regimen: Daily Repeat
# Format: toxicity, organism-based, Sprague-Dawley
# Design: regimen Daily Repeat, gender Male, age 6-8 weeks
# Settings: in vivo, po, route oral GAVAGE, vehicle 100 % WATER; for ABSOLUTE BASOPHIL / ABSOLUTE EOSINOPHIL / ABSOLUTE LYMPHOCYTE / ABSOLUTE MONOCYTE / ABSOLUTE SEGMENTED NEUTROPHIL / BASOPHIL / EOSINOPHIL / ERYTHROCYTE COUNT / HEMATOCRIT / HEMOGLOBIN / LEUKOCYTE COUNT / LYMPHOCYTE / MEAN CORPUSCULAR HEMOGLOBIN / MEAN CORPUSCULAR HEMOGLOBIN CONCENTRATION / MEAN CORPUSCULAR VOLUME / MONOCYTE / NEUTROPHIL / NUCLEATED RED BLOOD CELLS / PLATELET COUNT: tissue Blood; for ALANINE AMINOTRANSFERASE / ALBUMIN / ALKALINE PHOSPHATASE / ASPARTATE AMINOTRANSFERASE / BLOOD UREA NITROGEN / CARBON DIOXIDE / CHLORIDE / CHOLESTEROL / CREATINE PHOSPHOKINASE / CREATININE / GLUCOSE / LACTATE DEHYDROGENASE / LIPASE / PHOSPHORUS / POTASSIUM / SODIUM / TOTAL BILIRUBIN / TOTAL PROTEIN / URIC ACID: tissue Plasma
# [1] = 300 mg/kg, 120 h, dose level Low, time 5 day
# [2] = 3000 mg/kg, 72 h, dose level High, time 3 day
# [3] = 3000 mg/kg, 120 h, dose level High, time 5 day
compound,measurement,setting,value
CC(Cl)(Cl)Cl [TRICHLOROETHANE],ABSOLUTE BASOPHIL,[1],0 CELLS/uL
same,ABSOLUTE EOSINOPHIL,[1],0 CELLS/uL
same,ABSOLUTE LYMPHOCYTE,[1],11569 CELLS/uL
same,ABSOLUTE MONOCYTE,[1],149.67 CELLS/uL
same,ABSOLUTE SEGMENTED NEUTROPHIL,[1],1081.33 CELLS/uL
same,BASOPHIL,[1],0%
same,EOSINOPHIL,[1],0%
same,ERYTHROCYTE COUNT,[1],5.76 x10E6/uL
same,HEMATOCRIT,[1],36.17%
same,HEMOGLOBIN,[1],14.07 G/DL
same,LEUKOCYTE COUNT,[1],12.8 x10E3/uL
same,LYMPHOCYTE,[1],90%
same,MEAN CORPUSCULAR HEMOGLOBIN,[1],24.43 pg
same,MEAN CORPUSCULAR HEMOGLOBIN CONCENTRATION,[1],38.9 G/DL
same,MEAN CORPUSCULAR VOLUME,[1],62.7 fL
same,MONOCYTE,[1],1%
same,NEUTROPHIL,[1],9%
same,NUCLEATED RED BLOOD CELLS,[1],0.33 /100WBC
same,PLATELET COUNT,[1],1070.67 x10E3/uL
same,ALANINE AMINOTRANSFERASE,[1],50.33 u/L
same,ALBUMIN,[1],4.07 G/DL
same,ALKALINE PHOSPHATASE,[1],394 u/L
same,ASPARTATE AMINOTRANSFERASE,[1],95 u/L
same,BLOOD UREA NITROGEN,[1],16.33 mg/dL
same,CARBON DIOXIDE,[1],32.33 mmol/L
same,CHLORIDE,[1],103.33 MEQ/L
same,CHOLESTEROL,[1],65 mg/dL
same,CREATINE PHOSPHOKINASE,[1],400 u/L
same,CREATININE,[1],0.17 mg/dL
same,GLUCOSE,[1],135.67 mg/dL
same,LACTATE DEHYDROGENASE,[1],117.67 u/L
same,LIPASE,[1],10.67 u/L
same,PHOSPHORUS,[1],11.3 mg/dL
same,POTASSIUM,[1],6.41 MEQ/L
same,SODIUM,[1],148.03 MEQ/L
same,TOTAL BILIRUBIN,[1],0.2 mg/dL
same,TOTAL PROTEIN,[1],6.03 G/DL
same,URIC ACID,[1],0.9 mg/dL
same,ABSOLUTE BASOPHIL,[2],0 CELLS/uL
same,ABSOLUTE EOSINOPHIL,[2],0 CELLS/uL
same,ABSOLUTE LYMPHOCYTE,[2],11145.5 CELLS/uL
same,ABSOLUTE MONOCYTE,[2],120.5 CELLS/uL
same,ABSOLUTE SEGMENTED NEUTROPHIL,[2],784 CELLS/uL
same,BASOPHIL,[2],0%
same,EOSINOPHIL,[2],0%
same,ERYTHROCYTE COUNT,[2],6.08 x10E6/uL
same,HEMATOCRIT,[2],38.1%
same,HEMOGLOBIN,[2],14.85 G/DL
same,LEUKOCYTE COUNT,[2],12.05 x10E3/uL
same,LYMPHOCYTE,[2],92.5%
same,MEAN CORPUSCULAR HEMOGLOBIN,[2],24.45 pg
same,MEAN CORPUSCULAR HEMOGLOBIN CONCENTRATION,[2],39 G/DL
same,MEAN CORPUSCULAR VOLUME,[2],62.65 fL
same,MONOCYTE,[2],1%
same,NEUTROPHIL,[2],6.5%
same,NUCLEATED RED BLOOD CELLS,[2],0.5 /100WBC
same,PLATELET COUNT,[2],1361.5 x10E3/uL
same,ALANINE AMINOTRANSFERASE,[2],49.5 u/L
same,ALBUMIN,[2],4.15 G/DL
same,ALKALINE PHOSPHATASE,[2],322 u/L
same,ASPARTATE AMINOTRANSFERASE,[2],87.5 u/L
same,BLOOD UREA NITROGEN,[2],11.5 mg/dL
same,CARBON DIOXIDE,[2],33 mmol/L
same,CHLORIDE,[2],102.5 MEQ/L
same,CHOLESTEROL,[2],91.5 mg/dL
same,CREATINE PHOSPHOKINASE,[2],450 u/L
same,CREATININE,[2],0.17 mg/dL
same,GLUCOSE,[2],131 mg/dL
same,LACTATE DEHYDROGENASE,[2],260 u/L
same,LIPASE,[2],9.5 u/L
same,PHOSPHORUS,[2],9.5 mg/dL
same,POTASSIUM,[2],5.71 MEQ/L
same,SODIUM,[2],148.15 MEQ/L
same,TOTAL BILIRUBIN,[2],0.1 mg/dL
same,TOTAL PROTEIN,[2],6.35 G/DL
same,URIC ACID,[2],0.5 mg/dL
same,ABSOLUTE BASOPHIL,[3],0 CELLS/uL
same,ABSOLUTE EOSINOPHIL,[3],0 CELLS/uL
same,ABSOLUTE LYMPHOCYTE,[3],9273 CELLS/uL
same,ABSOLUTE MONOCYTE,[3],138.67 CELLS/uL
same,ABSOLUTE SEGMENTED NEUTROPHIL,[3],1121.67 CELLS/uL
same,BASOPHIL,[3],0%
same,EOSINOPHIL,[3],0%
same,ERYTHROCYTE COUNT,[3],5.95 x10E6/uL
same,HEMATOCRIT,[3],36.77%
same,HEMOGLOBIN,[3],13.97 G/DL
same,LEUKOCYTE COUNT,[3],10.53 x10E3/uL
same,LYMPHOCYTE,[3],87.67%
same,MEAN CORPUSCULAR HEMOGLOBIN,[3],23.57 pg
same,MEAN CORPUSCULAR HEMOGLOBIN CONCENTRATION,[3],37.97 G/DL
same,MEAN CORPUSCULAR VOLUME,[3],62 fL
same,MONOCYTE,[3],1.33%
same,NEUTROPHIL,[3],11%
same,NUCLEATED RED BLOOD CELLS,[3],0 /100WBC
same,PLATELET COUNT,[3],1168 x10E3/uL
same,ALANINE AMINOTRANSFERASE,[3],46.33 u/L
same,ALBUMIN,[3],4.03 G/DL
same,ALKALINE PHOSPHATASE,[3],272 u/L
same,ASPARTATE AMINOTRANSFERASE,[3],71 u/L
same,BLOOD UREA NITROGEN,[3],14.33 mg/dL
same,CARBON DIOXIDE,[3],30.67 mmol/L
same,CHLORIDE,[3],100.33 MEQ/L
same,CHOLESTEROL,[3],74 mg/dL
same,CREATINE PHOSPHOKINASE,[3],156.67 u/L
same,CREATININE,[3],0.17 mg/dL
same,GLUCOSE,[3],120.67 mg/dL
same,LACTATE DEHYDROGENASE,[3],107 u/L
same,LIPASE,[3],10.33 u/L
same,PHOSPHORUS,[3],12.33 mg/dL
same,POTASSIUM,[3],6.12 MEQ/L
same,SODIUM,[3],147.17 MEQ/L
same,TOTAL BILIRUBIN,[3],0.13 mg/dL
same,TOTAL PROTEIN,[3],6.2 G/DL
same,URIC ACID,[3],1.1 mg/dL
